Earlier results as cited in patent US20090117559A1, “Methods for Determining Probability of an Adverse or Favorable Reaction to a Niacin Receptor Agonist” (priority 2005, published 2009).

Key:
[1] = post administration of niacin by injection

patients who cease taking niacin treatment within days after initiating therapy (human, in vivo): 30-40%
subjects experiencing flushing in response to nicotinic acid therapy (unsegmented (general) population, Shepherd et al. 2005): 70-80%
time after which the flushing reaction declines significantly [1]: about 30 minutes
time at which the flushing reaction peaks [1]: about 3 minutes
SMILES: O=C(O)c1cccnc1 [niacin, nicotinic acid]
